Measurements from patent publication US10676721B2, “Bacteriophages expressing antimicrobial peptides and uses thereof” (priority 2009, dated 2020).
Peptide text beside a SMILES is read from it.

Key:
[1] = Toxicity of AMPs (Table 3, method not described); design: unit not given here; conditions: two values per AMP
[2] = test system: E. coli strain that expresses capsular polysaccharide K; experiment: Mixed culture of E. coli host strain and E. coli strain expressing capsular polysaccharide K; type: cell-based, Escherichia coli
Description: The expression of the genomic payload of lytic peptides and proteins increases the utility of the engineered bacteriophage to treat heterologous infections.

[3] = test system: Staphylococcus aureus; experiment: Co-culture of E. coli with Staphylococcus aureus; type: cell-based
[4] = test system: Staph aureus; experiment: Staph aureus growth in sterile media isolated 6 hours after M13 infection of EMG2 (FIG. 30); type: cell-based, Staphylococcus aureus; conditions: no phage control 1.6
Protocol: The inventors isolated the media in which the antimicrobial agents were released. The inventors next infected a growing mid-log culture of EMG2 with the different wild-type and engineered M13 phage. At 6 hours post infection, the EMG2 cells were centrifuged at 13,000 g and filtered through a 0.2 um membrane to collect sterile media with the released AmP and enzyme. The media was replenished in nutrients by adding 5× concentrated LB solution. Mid-log Staph bacteria where then inoculated in the media at a concentration of 10^5 CFU/ml.
For example, the “no phage” or the “m13 mp 18” staph culture reach an OD of 0.8 within 4 hours whereas the “M13.pTRC.Omp.PonW3” media containing PonW3 (SEQ ID NO: 40) causes a growth delay by another 4 hours, the culture reaches the same OD of 0.8 only after 8 hours of growth. Finally, release of CHAP165 in the surrounding media due to phage reengineering limited staph growth to an OD level of 0.8 while compared to 1.6 for the no phage control and 1.2 for the wild M13mp18.

[5] = test system: S. aureus; conditions: CHAP165, from ROSS 2009; cited from earlier work
[6] = test system: antibiotic-resistant staphylococci; conditions: cited from earlier work

CC(C)C[C@H](NC(=O)[C@H](CC(C)C)NC(=O)[C@H](Cc1ccccc1)NC(=O)[C@H](CC(C)C)NC(=O)[C@H](CC(C)C)NC(=O)[C@@H](N)CC(C)C)C(=O)N[C@@H](CCCCN)C(=O)N[C@@H](CCCCN)C(=O)N[C@@H](CCCNC(=N)N)C(=O)N[C@@H](CCCCN)C(=O)N[C@@H](CCCCN)C(=O)N[C@@H](CCCNC(=N)N)C(=O)N[C@@H](CCCCN)C(=O)N[C@@H](Cc1ccc(O)cc1)C(=O)O [J589_D1] (H-LLLFLLKKRKKRKY-OH)
Toxicity [1]: 512

CC[C@H](C)[C@H](NC(=O)[C@H](C)NC(=O)[C@H](CCCCN)NC(=O)CNC(=O)[C@H](C)NC(=O)[C@H](Cc1c[nH]cn1)NC(=O)[C@@H](NC(=O)[C@H](C)NC(=O)CNC(=O)[C@H](CCCCN)NC(=O)[C@@H](NC(=O)[C@H](CC(C)C)NC(=O)[C@H](Cc1c[nH]c2ccccc12)NC(=O)CNC(=O)[C@H](Cc1ccccc1)NC(=O)[C@@H](N)Cc1ccccc1)[C@@H](C)CC)[C@@H](C)CC)C(=O)N[C@@H](Cc1c[nH]cn1)C(=O)NCC(=O)N[C@@H](CC(C)C)C(=O)N[C@H](C(=O)N[C@@H](Cc1c[nH]cn1)C(=O)N[C@@H](CCCNC(=N)N)C(=O)N[C@@H](CCCNC(=N)N)C(=O)N[C@@H](CCCNC(=N)N)C(=O)N[C@@H](Cc1c[nH]cn1)C(=O)O)[C@@H](C)CC [J589_J6] (H-FFGWLIKGAIHAGKAIHGLIHRRRH-OH)
Toxicity [1]: 16

CC[C@H](C)[C@H](NC(=O)CNC(=O)[C@H](CCCNC(=N)N)NC(=O)[C@H](Cc1ccccc1)NC(=O)[C@@H](NC(=O)[C@H](Cc1c[nH]cn1)NC(=O)[C@H](Cc1c[nH]cn1)NC(=O)[C@H](Cc1ccccc1)NC(=O)[C@@H](N)Cc1ccccc1)[C@@H](C)CC)C(=O)N[C@H](C(=O)N[C@@H](Cc1c[nH]cn1)C(=O)N[C@H](C(=O)NCC(=O)N[C@@H](CCCCN)C(=O)N[C@H](C(=O)N[C@H](C(=O)N[C@@H](Cc1c[nH]cn1)C(=O)N[C@@H](CCCCN)C(=O)N[C@@H](CC(C)C)C(=O)N[C@H](C(=O)N[C@H](C(=O)NCC(=O)O)[C@@H](C)O)C(C)C)[C@@H](C)CC)[C@@H](C)O)C(C)C)C(C)C [J589_H3] (H-FFHHIFRGIVHVGKTIHKLVTG-OH)
Toxicity [1]: 128

CC[C@H](C)[C@H](NC(=O)[C@H](CC(C)C)NC(=O)[C@H](C)NC(=O)CNC(=O)[C@H](Cc1c[nH]c2ccccc12)NC(=O)[C@@H](N)Cc1ccccc1)C(=O)N[C@@H](CCCCN)C(=O)NCC(=O)N[C@@H](C)C(=O)N[C@@H](C)C(=O)N[C@@H](CCCCN)C(=O)N[C@@H](CC(C)C)C(=O)N[C@H](C(=O)N1CCC[C@H]1C(=O)N[C@@H](CO)C(=O)N[C@H](C(=O)N[C@H](C(=O)NCC(=O)N[C@@H](CC(C)C)C(=O)N[C@@H](Cc1ccccc1)C(=O)N[C@@H](CCCCN)C(=O)N[C@@H](CCCCN)C(=O)N[C@@H](CCCCN)C(=O)N[C@@H](CCC(N)=O)C(=O)O)C(C)C)C(C)C)[C@@H](C)CC [J6084_H2, Ponericin W5] (H-FWGALIKGAAKLIPSVVGLFKKKQ-OH)
Toxicity [1]: 32

CC[C@H](C)[C@H](NC(=O)[C@H](CCCCN)NC(=O)[C@H](CCCCN)NC(=O)[C@H](Cc1ccccc1)NC(=O)[C@H](CC(C)C)NC(=O)[C@H](CCCCN)NC(=O)[C@H](Cc1c[nH]c2ccccc12)NC(=O)[C@@H](N)CCCCN)C(=O)N[C@@H](CC(C)C)C(=O)N[C@@H](CCCCN)C(=O)N[C@@H](Cc1ccccc1)C(=O)N[C@@H](CC(C)C)C(=O)N[C@@H](Cc1c[nH]cn1)C(=O)N[C@@H](CC(C)C)C(=O)N[C@@H](C)C(=O)N[C@@H](CCCCN)C(=O)N[C@@H](CCCCN)C(=O)N[C@@H](Cc1ccccc1)C(=O)O [J6084_F10] (H-KWKLFKKILKFLHLAKKF-OH)
Toxicity [1]: 32

CC[C@H](C)[C@H](NC(=O)[C@H](CCCCN)NC(=O)[C@H](CC(C)C)NC(=O)[C@H](C)NC(=O)[C@H](CO)NC(=O)CNC(=O)[C@H](CC(C)C)NC(=O)[C@@H](N)Cc1c[nH]c2ccccc12)C(=O)NCC(=O)N[C@@H](C)C(=O)N[C@@H](CCCCN)C(=O)N[C@@H](CC(C)C)C(=O)N[C@@H](CC(C)C)C(=O)N1CCC[C@H]1C(=O)N[C@@H](CO)C(=O)N[C@H](C(=O)N[C@H](C(=O)NCC(=O)N[C@@H](CC(C)C)C(=O)N[C@@H](Cc1ccccc1)C(=O)N[C@@H](CCCCN)C(=O)N[C@@H](CCCCN)C(=O)N[C@@H](CCCCN)C(=O)N[C@@H](CCCCN)C(=O)N[C@@H](CCC(N)=O)C(=O)O)C(C)C)C(C)C [J6123_D7, Ponericin W1] (H-WLGSALKIGAKLLPSVVGLFKKKKQ-OH)
Toxicity [1]: 64

CC[C@H](C)[C@H](NC(=O)CN)C(=O)N[C@@H](Cc1c[nH]c2ccccc12)C(=O)NCC(=O)N[C@H](C(=O)N[C@@H](CC(C)C)C(=O)N[C@@H](C)C(=O)N[C@@H](CCCCN)C(=O)N[C@H](C(=O)NCC(=O)N[C@H](C(=O)N[C@@H](CCCCN)C(=O)N[C@@H](C)C(=O)N[C@H](C(=O)N1CCC[C@H]1C(=O)N[C@@H](CCCNC(=N)N)C(=O)N[C@H](C(=O)N[C@H](C(=O)N[C@@H](CO)C(=O)N[C@@H](CCSC)C(=O)N[C@@H](CC(C)C)C(=O)N[C@@H](CCCCN)C(=O)N[C@@H](CCCCN)C(=O)N[C@@H](CCCCN)C(=O)N[C@@H](CCCCN)C(=O)N[C@@H](CCC(N)=O)C(=O)O)[C@@H](C)CC)C(C)C)C(C)C)[C@@H](C)CC)[C@@H](C)CC)[C@@H](C)O [J589_K4, Ponericin W3] (H-GIWGTLAKIGIKAVPRVISMLKKKKQ-OH)
Toxicity [1]: 64

CC[C@H](C)[C@H](NC(=O)[C@H](C)NC(=O)[C@@H]1CCCN1C(=O)CNC(=O)[C@H](C)NC(=O)[C@H](CCCCN)NC(=O)[C@@H](NC(=O)[C@H](CC(C)C)NC(=O)CNC(=O)[C@H](CC(=O)O)NC(=O)[C@H](CCCNC(=N)N)NC(=O)[C@@H](NC(=O)[C@H](CC(N)=O)NC(=O)[C@H](CCC(N)=O)NC(=O)CNC(=O)[C@@H](NC(=O)[C@H](CCCNC(=N)N)NC(=O)[C@H](CCC(=O)O)NC(=O)[C@@H](NC(=O)[C@H](CCCCN)NC(=O)[C@H](CCCCN)NC(=O)[C@H](Cc1ccccc1)NC(=O)[C@H](Cc1ccccc1)NC(=O)[C@H](CCCCN)NC(=O)[C@H](Cc1c[nH]c2ccccc12)NC(=O)[C@@H](N)CCCNC(=N)N)[C@@H](C)CC)C(C)C)C(C)C)[C@@H](C)CC)C(=O)N[C@@H](CCC(N)=O)C(=O)N[C@H](C(=O)N[C@@H](CC(C)C)C(=O)NCC(=O)N[C@@H](C)C(=O)N[C@@H](C)C(=O)N[C@@H](CCCCN)C(=O)N[C@@H](C)C(=O)N[C@@H](CC(C)C)C(=O)O)C(C)C [J6090_C11] (H-RWKFFKKIERVGQNVRDGLIKAGPAIQVLGAAKAL-OH)
Toxicity [1]: 256

CC[C@H](C)[C@H](NC(=O)[C@H](CCCCN)NC(=O)[C@H](CC(C)C)NC(=O)[C@H](C)NC(=O)[C@H](CO)NC(=O)CNC(=O)[C@H](CC(C)C)NC(=O)[C@@H](N)Cc1c[nH]c2ccccc12)C(=O)NCC(=O)N[C@@H](C)C(=O)N[C@@H](CCCCN)C(=O)N[C@@H](CC(C)C)C(=O)N[C@@H](CC(C)C)C(=O)N1CCC[C@H]1C(=O)N[C@@H](CO)C(=O)N[C@H](C(=O)N[C@H](C(=O)NCC(=O)N[C@@H](CC(C)C)C(=O)N[C@@H](Cc1ccccc1)C(=O)N[C@@H](CCC(N)=O)C(=O)N[C@@H](CCCCN)C(=O)N[C@@H](CCCCN)C(=O)N[C@@H](CCCCN)C(=O)N[C@@H](CCCCN)C(=O)O)C(C)C)C(C)C [J589_J5] (H-WLGSALKIGAKLLPSVVGLFQKKKK-OH)
Toxicity [1]: 32

B1: CHAP165 (protein)
chain: AKTQAEINKRLDAYAKGTVDSPYRVKKATSYDPSFGVMEAGAIDADGYYHAQCQDLITDYVLWLTDNKVRTWGNAKDQIKQSYGTGFKIHENKPSTVPKKGWIAVFTSGSYEQWGHIGIVYDGGNTSTFTILEQNWNGYANKKPTKRVDNYYGLTHFIEIPVKA
sterilization of the heterogeneous E. coli culture [2]: sterilize the heterogeneous E. coli culture completely
lysis of the E. coli strain that expresses capsular polysaccharide K ([2]; lysK165 expressed from engineered bacteriophage): able to lyse
lysis of the staphylococcal population [3]: able to complete lyse
OD level to which staph growth is limited [4]: 0.8
MIC SA [5]: ~0.3 µg/mL
lytic activity compared with the natural LysK enzyme [6]: twice stronger lytic activity
